Where two headings read alike, the source gives them in different places.
What was measured:
[1] = system: H. pylori infection; assay: Antibiotic therapy of H. pylori infection, response monitored by SIA; format: in vivo, Helicobacter pylori; conditions: individuals undergoing antibiotic regimen, determined with the SIA
Method: For the immunoblot assay, strips were processed in a batch fashion with 30 strips per batch. All steps were performed at room temperature. Each strip was numbered and then placed in a separate tube to which was added 1 ml of diluent (phosphate-buffered saline (PBS) with bovine protein stabilizers and detergents, 0.1% sodium azide and 0.05% gentamicin sulfate as preservatives) and 30 μl of a serum sample from an individual known to be infected with H. pylori Type I, suspected of being infected with H. pylori Type I or a control subject, was applied. The tubes were rocked gently for 4 h, the solution removed by aspiration, and 1 ml of fresh diluent was added to each tube. The tubes were rocked for 30 minutes, the solution removed by aspiration and 1 ml of wash buffer made from wash buffer concentrate (50×) (phosphate-buffered detergent solution with 0.01% thimerosal as a preservative) was added to each tube. The contents of each tube were emptied into a single wash vessel and the strips were washed by swirling for 20 seconds. The wash buffer was decanted and 30 ml of fresh buffer added and the process repeated. […] Strips were then read within 3 h of drying. […] The lysate and VacA and CagA bands are then scored from 0 to 4+according to how their band intensity compares to that of the IgG control bands. […]

[2] = system: H. pylori infection; conditions: individuals undergoing antibiotic regimen for H. pylori infection; cited from earlier work
[3] = system: H. pylori antibodies in serum sample; assay: H. pylori strip immunoblot assay (SIA), band reactivity of immobilized antigens with serum samples; format: binding, human; design: key: band intensity 0 to 4+ vs IgG controls (low IgG = 1+, high = 3+)
Method: A. An SIA was done as follows. An H. pylori extract containing a mixture of antigens including type-common antigens was obtained from Bioseed, Inc., Hillsborough, Calif. Briefly, the extract was prepared from an H. pylori bacterium obtained from the American Type Culture Collection (ATCC) having an ATCC strain designation of ATCC 43504. The extract was prepared using detergent extraction and sonication.
The VacA and CagA type-specific antigens, described in Examples 1 and 2, respectively, were applied in discrete bands to nitrocellulose strips at concentrations of 1-2 μg/ml. The lysate including the type-common antigens was coated as another discrete band at a concentration of 0.5-1 μg/ml onto the same nitrocellulose strips. As internal controls, additional bands contained purified human IgG at a low (100-185 ng/ml) and high (500-925 ng/ml) concentration. Other strips were coated with the antigens and lysate as described above, however, on these strips, the lysate was first enhanced with the VacA and CagA antigens added to the lysate at a concentration of 0.5-1 μg/ml (VacA) and 0.5-μg/ml (CagA). FIG. 1 is a diagram of a nitrocellulose strip with the antigens as described above.
For the immunoblot assay, strips were processed in a batch fashion with 30 strips per batch. All steps were performed at room temperature. Each strip was numbered and then placed in a separate tube to which was added 1 ml of diluent (phosphate-buffered saline (PBS) with bovine protein stabilizers and detergents, 0.1% sodium azide and 0.05% gentamicin sulfate as preservatives) and 30 μl of a serum sample from an individual known to be infected with H. pylori Type I, suspected of being infected with H. pylori Type I or a control subject, was applied. The tubes were rocked gently for 4 h, the solution removed by aspiration, and 1 ml of fresh diluent was added to each tube. The tubes were rocked for 30 minutes, the solution removed by aspiration and 1 ml of wash buffer made from wash buffer concentrate (50×) (phosphate-buffered detergent solution with 0.01% thimerosal as a preservative) was added to each tube. The contents of each tube were emptied into a single wash vessel and the strips were washed by swirling for 20 seconds. The wash buffer was decanted and 30 ml of fresh buffer added and the process repeated. Residual solution was removed by aspiration and 20 ml of conjugate solution (peroxidase-labeled goat anti-human IgG (heavy and light chains), with bovine protein stabilizers, containing 0.01% thimerosal as a preservative) was added. The vessel was rotated at 110 rpm for 10 minutes, the conjugate solution was decanted and the wash step was repeated three times. Residual solution was again removed by aspiration and 20 ml of substrate/developer (4-chloro-1-napthol in methanol/phosphate-buffered hydrogen peroxide) added, followed by rotation for 15-20 minutes at 110 rpm. The solution was decanted and the strips were washed twice in distilled water. Developed strips were placed face up on absorbent paper and allowed to dry for 30 minutes in the dark. Strips were then read within 3 h of drying. The intensity of the color of the H. pylori antigen bands were assigned values ranging from −(0) to 4+using the following algorithm. The low IgG band is assigned a value of 1+, the high IgG band is assigned a value of 3+. The lysate and VacA and CagA bands are then scored from 0 to 4+according to how their band intensity compares to that of the IgG control bands.
Samples with any of the H. pylori antigen bands scoring 1+ or greater to the lysate band are considered to be positive for H. pylori infection. Reactivity of 1+ or greater to the lysate band, in addition to reactivity of 1+ or greater to the CagA and/or VacA band, is considered positive for H. pylori Type I infection. Samples showing no reactivity of 1+ or greater to any bands are considered negative. […]

[4] = system: antibodies to CagA; conditions: cited from earlier work
[5] = Responder to antibiotic therapy, Prebleed

Molecule	% Responders by SIA [1] [%]	Responders (responders/tested) by SIA [1]	Response Rate Reported [2] [%]	Band reactivity (intensity value), therapy monitoring ([3]; Non-Responder, 8 M)	Band reactivity (intensity value), therapy monitoring ([3]; Non-Responder, 16 M)	Band reactivity (intensity value), therapy monitoring ([3]; Non-Responder, Prebleed)	Band reactivity (intensity value), therapy monitoring [3, 5]	Band reactivity (intensity value), therapy monitoring ([3]; Responder, 1 M)	Band reactivity (intensity value), therapy monitoring ([3]; Responder, 3 M)	Band reactivity (intensity value), therapy monitoring ([3]; Responder, 6 M)	Band reactivity (intensity value), therapy monitoring ([3]; Responder, 9 M)	Band reactivity (intensity value), therapy monitoring ([3]; Responder, 12 M)	patients CagA seropositive ([4]; patients suffering from gastric ulcer)	patients CagA seropositive ([4]; patients with duodenal ulcer or duodenitis)
Cc1ncc([N+](=O)[O-])n1CCO [Single, Metronidazole]	20	1/5	19											
VacA: Recombinant 71.2 kDa fusion: 154 aa human SOD, five aa linker, VacA Gly-311 through Ile-819 of H. pylori CCUG17874				2.49	2.10	2.54	0.31	0.26	0.33	0.29	0.21	0.18		
CagA: Recombinant truncated CagA of 268 amino acids, 29.2 kDa, Glu-748 through Glu-1015, H. pylori strain Chetx-1 (protein, listed as Helicobacter pylori) MEFKNGKNKDFSKVTQAKSDLENSIKDVIFNQKITDKVDDLNQAVSVAKATGDFSRVEQALADLKNFSKEQLAQQAQKNESLNAGKKSEIYQSVKNGVNGTLVGNGLSQAEATTLSKNFSDIKKELNAKLFGNFNNNNNNGLKNSTEPIYAKVNKKKTGQVASPEEPIYTQVAKKVNAKIDRLNQIASGLGGVGKAAGFPLKRHDKVDDLSKVGRSVSPEPIYATIDDLGGPFPLKRHDKVDDLSKVGLSRNQELAQKIDNLNQAVSE				0.99	0.90	1.31	1.92	1.69	1.09	0.90	0.73	0.43	more than 70%	more than 95%
